Among the data in EP4707277A1, “NOVEL HETEROCYCLIC AMINE DERIVATIVES AND PHARMACEUTICAL COMPOSITION COMPRISING SAME” (Daewoong Pharmaceutical Co., Ltd., priority 2023, dated 2024) are IC50 values, retold here.

Molecules are shown by their SMILES. Read-outs that look alike come from different tables or passages of the source. Some results are limits rather than exact numbers.

The target of one assay is T1, BTK (Homo sapiens, UniProt Q06187).
T1 construct: purchased Signalchem B10-10H
Briefly: Inhibitory activity against BTK, ADP-Glo Kinase system (Promega). It counts as biochemical. In short, it runs like this: (§1)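 ADP-Glo luminescent ADP detection with recombinant human ITK (4 ng/reaction) or BTK (10 ng/reaction) and poly(Glu4,Tyr1) substrate at 0.2 µg/µl. Buffer: Tris pH 7.5, MgCl2, MnCl2, BSA, DTT. ATP 1 mM or Km (BTK 10 µM, ITK 25 µM); 1% DMSO; 1 h at 30°C; IC50 from curve fit.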
(In general: ADP-Glo turns the ADP formed in a reaction into a luminescent signal.)

The next assay deals with T2, ITK (Homo sapiens, UniProt Q08881).
T2 construct: purchased Signalchem I13-11G-10
T2 sequence (Q08881 1-620): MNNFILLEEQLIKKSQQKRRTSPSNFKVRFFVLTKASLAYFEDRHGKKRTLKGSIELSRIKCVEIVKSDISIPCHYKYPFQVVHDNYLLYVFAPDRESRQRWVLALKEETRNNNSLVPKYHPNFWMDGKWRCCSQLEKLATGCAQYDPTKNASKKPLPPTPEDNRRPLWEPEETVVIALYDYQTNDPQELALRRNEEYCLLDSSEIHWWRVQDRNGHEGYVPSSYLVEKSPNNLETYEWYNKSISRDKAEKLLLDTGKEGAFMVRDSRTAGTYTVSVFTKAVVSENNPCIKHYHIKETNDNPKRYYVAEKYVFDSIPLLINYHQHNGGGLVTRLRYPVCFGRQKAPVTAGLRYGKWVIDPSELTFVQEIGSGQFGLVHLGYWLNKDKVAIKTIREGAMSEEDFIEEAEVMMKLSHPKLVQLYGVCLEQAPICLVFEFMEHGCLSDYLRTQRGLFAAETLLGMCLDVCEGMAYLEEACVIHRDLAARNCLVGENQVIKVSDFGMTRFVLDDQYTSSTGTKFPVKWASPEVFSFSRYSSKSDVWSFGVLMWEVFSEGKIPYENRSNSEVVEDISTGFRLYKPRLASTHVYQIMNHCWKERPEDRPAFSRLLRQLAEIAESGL
Nature of the assay: Inhibitory activity against ITK, ADP-Glo Kinase system (Promega). It counts as biochemical. In short, it runs like this:
as §1

Setting [1] is: Km ATP (BTK: 10 uM), read-out: BTK IC50(nM) Km ATP.
Where [2] appears, read: Km ATP (ITK: 25uM), read-out: ITK IC50(nM) Km ATP.
Setting [3] is: 1mM ATP, read-out: BTK IC50(nM) 1mM ATP.
Where [4] appears, read: 1mM ATP, read-out: ITK IC50(nM) 1mM ATP.

T1 sequence (Q06187 whole entry): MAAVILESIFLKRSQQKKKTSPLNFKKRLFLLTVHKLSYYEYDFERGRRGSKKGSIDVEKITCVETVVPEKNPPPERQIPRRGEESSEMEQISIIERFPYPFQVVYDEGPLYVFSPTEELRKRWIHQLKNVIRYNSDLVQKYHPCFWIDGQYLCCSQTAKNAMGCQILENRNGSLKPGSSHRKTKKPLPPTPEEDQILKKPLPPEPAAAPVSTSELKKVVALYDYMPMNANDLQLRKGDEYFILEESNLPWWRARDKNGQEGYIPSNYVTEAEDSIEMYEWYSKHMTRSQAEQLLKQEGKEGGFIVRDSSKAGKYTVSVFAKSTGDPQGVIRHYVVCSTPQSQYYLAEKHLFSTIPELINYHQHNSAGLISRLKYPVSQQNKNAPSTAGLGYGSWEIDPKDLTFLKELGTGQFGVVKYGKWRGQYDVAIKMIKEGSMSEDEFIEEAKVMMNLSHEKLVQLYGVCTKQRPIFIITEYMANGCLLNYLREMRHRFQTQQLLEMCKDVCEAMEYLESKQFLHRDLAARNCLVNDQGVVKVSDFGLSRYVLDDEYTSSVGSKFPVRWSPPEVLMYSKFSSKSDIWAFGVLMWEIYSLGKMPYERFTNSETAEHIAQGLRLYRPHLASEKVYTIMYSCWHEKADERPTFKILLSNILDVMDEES

In the case of `C=CC(=O)N1CC=C(c2nc(Nc3ncc(C)s3)cc3c2ccn3C)C1` [Example 3, 1-(3-(1-methyl-6-((5-methylthiazol-2-yl)amino)-1H-pyrrolo[3,2-c]pyridin-4-yl)-2,5-dihydro-1H-pyrrol-1-yl)prop-2-en-1-one], the IC50 on BTK (setting [1]) and at ITK (setting [2]) was 100 to 500 nM each time.
Take `C=CC(=O)N1CCC12CC(Oc1nc(Nc3ncc(C)s3)cc3c1ccn3C)C2` (centres unmarked) [Example 136, 1-(6-((1-methyl-6-((5-methylthiazol-2-yl)amino)-1H-pyrrolo[3,2-c]pyridin-4-yl)oxy)-1-azaspiro[3.3]heptan-1-yl)prop-2-en-1-one]: the 50% inhibitory concentration (IC50) at BTK (setting [3]) and on ITK (setting [4]) was not above 20 nM throughout.
As for `C=CC(=O)N1C[C@@H](F)[C@H](Oc2nc(Nc3ncc(C)s3)cc3c2ccn3CC(C)CC)C1` (stereo partly drawn) [Example 173, 1-((3R,4R)-3-fluoro-4-((1-(2-methylbutyl)-6-((5-methylthiazol-2-yl)amino)-1H-pyrrolo[3,2-c]pyridin-4-yl)oxy)pyrrolidin-1-yl)prop-2-en-1-one], the IC50 on BTK (setting [3]) and on ITK (setting [4]) was not above 20 nM in each case.
For the molecule `C=CC(=O)N1C[C@@H](Oc2nc(Nc3ncc(C)s3)cc3c2ccn3C)C[C@@H]1C` [Example 185, 1-((2S,4S)-2-methyl-4-((1-methyl-6-((5-methylthiazol-2-yl)amino)-1H-pyrrolo[3,2-c]pyridin-4-yl)oxy)pyrrolidin-1-yl)prop-2-en-1-one], the half-inhibitory concentration (IC50) at BTK (setting [3]) and at ITK (setting [4]) was not above 20 nM throughout.
Regarding `C=CC(=O)Nc1cccc(-c2nc(Nc3ncc(C)s3)cc3c2ccn3CC(C)C)c1C` [Example 62, N-(3-(1-isobutyl-6-((5-methylthiazol-2-yl)amino)-1H-pyrrolo[3,2-c]pyridin-4-yl)-2-methylphenyl)acrylamide], the IC50 is not above 20 nM at BTK (setting [3]) and 20 to 100 nM at ITK (setting [4]).
For the molecule `C=CC(=O)N1C[C@H](F)[C@H](Oc2nc(Nc3cccn(C)c3=O)cc3c2ccn3CC(C)C)C1` [Example 199, 3-((4-(((3R,4S)-1-acryloyl-4-fluoropyrrolidin-3-yl)oxy)-1-isobutyl-1H-pyrrolo[3,2-c]pyridin-6-yl)amino)-1-methylpyridin-2(1H)-one], the IC50 on BTK (setting [3]) and at ITK (setting [4]) was more than 500 nM throughout.
Take `C=CC(=O)N1CC=C(c2nc(Nc3ncc(C)s3)cc3c2ccn3C2CC2(F)F)CC1` (centres unmarked) [Example 20, 1-(4-(1-(2,2-difluorocyclopropyl)-6-((5-methylthiazol-2-yl)amino)-1H-pyrrolo[3,2-c]pyridin-4-yl)-3,6-dihydropyridin-1(2H)-yl)prop-2-en-1-one]: the half-maximal inhibitory concentration (IC50) at BTK (setting [1]) and on ITK (setting [2]) was not above 20 nM in each case.
Regarding `C=CC(=O)N1C2C=C(c3nc(Nc4ncc(C)s4)cc4c3ccn4C)CC1CCC2` (centres unmarked) [Example 36, 1-(3-(1-methyl-6-((5-methylthiazol-2-yl)amino)-1H-pyrrolo[3,2-c]pyridin-4-yl)-9-azabicyclo[3.3.1]non-2-en-9-yl)prop-2-en-1-one], the IC50 at BTK (setting [3]) and at ITK (setting [4]) was not above 20 nM in each case.
With `C=CC(=O)N1C[C@@H](F)[C@H](Oc2nc(Nc3ncc(C)s3)cc3c2ccn3CC2(C(F)(F)F)CC2)C1` [Example 120, 1-((3R,4R)-3-fluoro-4-((6-((5-methylthiazol-2-yl)amino)-1-((1-(trifluoromethyl)cyclopropyl)methyl)-1H-pyrrolo[3,2-c]pyridin-4-yl)oxy)pyrrolidin-1-yl)prop-2-en-1-one], the 50% inhibitory concentration (IC50) at BTK (setting [1]) and at ITK (setting [2]) was not above 20 nM throughout.
As for `C=CC(=O)N1CC[C@H](Oc2nc(Nc3ncc(CC)s3)cc3c2ccn3CC(C)C)C1` [Example 122, (S)-1-(3-((6-((5-ethylthiazol-2-yl)amino)-1-isobutyl-1H-pyrrolo[3,2-c]pyridin-4-yl)oxy)pyrrolidin-1-yl)prop-2-en-1-one], the IC50 at BTK (setting [1]) and on ITK (setting [2]) was not above 20 nM throughout.
`C=CC(=O)Nc1ccc(F)c(-c2nc(Nc3ncc(C)s3)cc3c2ccn3C(C)C)c1` [Example 59, N-(4-fluoro-3-(1-isopropyl-6-((5-methylthiazol-2-yl)amino)-1H-pyrrolo[3,2-c]pyridin-4-yl)phenyl)acrylamide]: the 50% inhibitory concentration (IC50) at BTK (setting [3]) and at ITK (setting [4]) was not above 20 nM throughout.
As for `C=CC(=O)N1C[C@H](F)[C@H](Oc2nc(Nc3ncc(C)s3)cc3c2ccn3CC(F)(F)F)C1` [Example 211, 1-((3S,4R)-3-fluoro-4-((6-((5-methylthiazol-2-yl)amino)-1-(2,2,2-trifluoroethyl)-1H-pyrrolo[3,2-c]pyridin-4-yl)oxy)pyrrolidin-1-yl)prop-2-en-1-one], the IC50 at BTK (setting [3]) and on ITK (setting [4]) was not above 20 nM each time.
With `C=CC(=O)N1C[C@@H](F)[C@H](Oc2nc(Nc3ncc(C)s3)cc3c2ccn3C[C@H](C)CC)C1` [Example 174, 1-((3R,4R)-3-fluoro-4-((1-((R)-2-methylbutyl)-6-((5-methylthiazol-2-yl)amino)-1H-pyrrolo[3,2-c]pyridin-4-yl)oxy)pyrrolidin-1-yl)prop-2-en-1-one], the IC50 at BTK (setting [3]) and on ITK (setting [4]) was not above 20 nM in each case.
`C=CC(=O)N1C[C@@H](Oc2nc(Nc3ncc(C)s3)cc3c2ccn3C2CCCC2)C[C@@H]1C` [Example 164, 1-((2S,4S)-4-((1-cyclopentyl-6-((5-methylthiazol-2-yl)amino)-1H-pyrrolo[3,2-c]pyridin-4-yl)oxy)-2-methylpyrrolidin-1-yl)prop-2-en-1-one]: the results for the IC50 at BTK (setting [3]) and on ITK (setting [4]) were 20 to 100 nM and 100 to 500 nM, respectively.
In the case of `C=CC(=O)N1CC[C@H](Oc2nc(Nc3ncc(C)s3)cc3c2ccn3CCC)C1` [Example 126, (S)-1-(3-((6-((5-methylthiazol-2-yl)amino)-1-propyl-1H-pyrrolo[3,2-c]pyridin-4-yl)oxy)pyrrolidin-1-yl)prop-2-en-1-one], the 50% inhibitory concentration (IC50) at BTK (setting [3]) and at ITK (setting [4]) was not above 20 nM throughout.
Take `C=CC(=O)N1C[C@H](F)[C@H](Oc2nc(Nc3ncc(C)s3)cc3c2ccn3C(C)C)C1` [Example 83, 1-((3S,4R)-3-fluoro-4-((1-isopropyl-6-((5-methylthiazol-2-yl)amino)-1H-pyrrolo[3,2-c]pyridin-4-yl)oxy)pyrrolidin-1-yl)prop-2-en-1-one]: the half-maximal inhibitory concentration (IC50) at BTK (setting [3]) and on ITK (setting [4]) was not above 20 nM throughout.
As for `C=CC(=O)N1CCC12CC(Oc1nc(Nc3ncc(C)s3)cc3c1ccn3CC(C)C)C2` (centres unmarked) [Example 137, 1-(6-((1-isobutyl-6-((5-methylthiazol-2-yl)amino)-1H-pyrrolo[3,2-c]pyridin-4-yl)oxy)-1-azaspiro[3.3]heptan-1-yl)prop-2-en-1-one], the IC50 on BTK (setting [3]) and at ITK (setting [4]) was not above 20 nM in each case.
Take `C=CC(=O)N1C[C@H](F)[C@H](Oc2nc(Nc3ncc(C)s3)cc3c2ccn3CC(C)(C)O)C1` [Example 141, 1-((3S,4R)-3-fluoro-4-((1-(2-hydroxy-2-methylpropyl)-6-((5-methylthiazol-2-yl)amino)-1H-pyrrolo[3,2-c]pyridin-4-yl)oxy)pyrrolidin-1-yl)prop-2-en-1-one]: the half-inhibitory concentration (IC50) at BTK (setting [3]) and on ITK (setting [4]) was not above 20 nM each time.
For the molecule `C=CC(=O)N1C[C@@H](Oc2nc(Nc3ncc(C)s3)cc3c2ccn3CC(C)C)C[C@@H]1C` [Example 179, 1-((2S,4S)-4-((1-isobutyl-6-((5-methylthiazol-2-yl)amino)-1H-pyrrolo[3,2-c]pyridin-4-yl)oxy)-2-methylpyrrolidin-1-yl)prop-2-en-1-one], the half-inhibitory concentration (IC50) at BTK (setting [3]) and at ITK (setting [4]) was not above 20 nM each time.

A word on the IC50: it is the concentration needed to halve the response being measured.
